US20090029949A1, “GPCR Ligands Identified by Computational Modeling” (priority 2006, published 2009)

Columns and labels:
[1] = target: T1, S1P1 mutant I5.41F (Homo sapiens, UniProt P21453, I203F); assay: [35S]GTPγS binding, S1P1 I5.41F; assay type: biochemical; conditions: S1P-induced, S1P1 I5.41F in RH7777 cells
T1 construct: expressed in transfected cells; host or cells: RH7777 (transient, pcDNA3.1)
Method: (§1) RH7777 and HEK-293 cells (ATCC, Manassas, Va.) were maintained in Dulbecco's modified minimal essential medium (DMEM) containing 10% fetal bovine serum (Hyclone, Logan, Utah). Cells (2×10^6) were transfected with 2 μg of plasmid DNA with Effectene (Qiagen, Valencia, Calif.) according to the manufacturer's instructions, for 24 h. Before ligand binding and receptor activation assays, the cells were washed twice with serum-free DMEM and serum-starved for at least 6 h.
(§2) S1P1 Receptor Activation Assays Receptor functional assays were performed in transiently transfected RH7777 cells by measuring S1P-activated [^35S]GTPγS binding as previously described (28).

[2] = target: T2, S1P1 mutant L3.36E (Homo sapiens, UniProt P21453, L128E); assay: [32P]S1P competition binding, HEK-293 cells, L3.36E; parameters: expressed in transfected cells; conditions: S1P1 L3.36E
Method: For the competition assays, HEK-293 cells were used. Briefly, 4×10^5 cells were plated in 24-well dishes and allowed to adhere overnight. The cells were then transfected with 0.4 μg of the cDNA using Lipofectamine 2000 (Invitrogen) and the transfection proceeded for 48 h. After washing the cells twice with ice-cold binding buffer (20 mM Tris-HCl, pH 7.4 and 150 mM NaCl), 0.1 nM [^32P]S1P and competing concentrations of cold S1P (1 nM-10 μM), resuspended in binding buffer+4% BSA, were applied to the cells and incubated on ice for 30 min. After washing the cells twice with ice-cold binding buffer+0.4% BSA, the cells were lysed with 0.5% SDS and equilibrated in scintillation fluid. The samples were measured in triplicate.

[3] = target: T3, S1P1 mutant M3.32K (Homo sapiens, UniProt P21453, M124K); assay: [35S]GTPγS binding, S1P1 M3.32K; assay type: biochemical; conditions: S1P-induced, S1P1 M3.32K in RH7777 cells
T3 construct: expressed in transfected cells; host or cells: RH7777
Method: as §1, §2

[4] = target: T4, S1P1 mutant L5.51E (Homo sapiens, UniProt P21453, L213E); assay: [35S]GTPγS binding, S1P1 L5.51E; assay type: biochemical; conditions: S1P-induced, S1P1 L5.51E in RH7777 cells
T4 construct: expressed in transfected cells; host or cells: RH7777 (transient, pcDNA3.1)
Method: as §1, §2

[5] = target: T5, S1P1 mutant I5.41A (Homo sapiens, UniProt P21453, I203A); assay: [35S]GTPγS binding, S1P1 I5.41A; assay type: biochemical; conditions: S1P-induced, S1P1 I5.41A in RH7777 cells
T5 construct: expressed in transfected cells; host or cells: RH7777 (transient, pcDNA3.1)
Method: as §1, §2

[6] = target: T6, S1P1 mutant T5.45G (Homo sapiens, UniProt P21453, T207G); assay: [35S]GTPγS binding, S1P1 T5.45G; assay type: biochemical; conditions: S1P-induced, S1P1 T5.45G in RH7777 cells
T6 construct: expressed in transfected cells; host or cells: RH7777 (transient, pcDNA3.1)
Method: as §1, §2

[7] = target: T7, S1P1 mutant V6.37T (Homo sapiens, UniProt P21453, V258T); assay: [35S]GTPγS binding, S1P1 V6.37T; assay type: biochemical; conditions: S1P-induced, S1P1 V6.37T in RH7777 cells
T7 construct: expressed in transfected cells; host or cells: RH7777 (transient, pcDNA3.1)
Method: as §1, §2

[8] = target: WT S1P1 (Homo sapiens, UniProt P21453); conditions: WT receptor, inventors' system (ref 28); read-out: apparent KD for S1P binding; cited from earlier work
[9] = target: T8, S1P1 mutant T5.45S (Homo sapiens, UniProt P21453, T207S); assay: [35S]GTPγS binding, S1P1 T5.45S; assay type: biochemical; conditions: S1P-induced, S1P1 T5.45S in RH7777 cells
T8 construct: expressed in transfected cells; host or cells: RH7777 (transient, pcDNA3.1)
Method: as §1, §2

[10] = target: T9, S1P1 mutant L5.51G (Homo sapiens, UniProt P21453, L213G); assay: [35S]GTPγS binding, S1P1 L5.51G; assay type: biochemical; conditions: S1P-induced, S1P1 L5.51G in RH7777 cells
T9 construct: expressed in transfected cells; host or cells: RH7777 (transient, pcDNA3.1)
Method: as §1, §2

[11] = target: T10, S1P1 mutant V5.47T (Homo sapiens, UniProt P21453, V209T); assay: [35S]GTPγS binding, S1P1 V5.47T; assay type: biochemical; conditions: S1P-induced, S1P1 V5.47T in RH7777 cells
T10 construct: expressed in transfected cells; host or cells: RH7777
Method: as §1, §2

[12] = target: T2, S1P1 mutant L3.36E; assay: [32P]S1P radioligand binding, RH7777 cells, L3.36E; parameters: expressed in transfected cells; host or cells: RH7777 (transient, pcDNA3.1); conditions: radioligand 50 nM, S1P1 L3.36E
Method: as §1
(§3) The S1P binding assays were done essentially as previously described (28). Transfected RH7777 cells (5×10^5) were incubated at 4° C. in 20 mM Tris-HCl (pH 7.5) binding buffer containing 100 mM NaCl, 15 mM NaF, protease inhibitor cocktail (Sigma-Aldrich), and 0.2 mg/ml essentially fatty-acid free BSA with 1 nM [^32P]S1P in 50 nM S1P for 40 min. Cells were centrifuged and washed twice in binding buffer. The final pellet was resuspended in 2:1 CHCl3/MeOH and the suspension was equilibrated in scintillation fluid overnight. Cell-bound radioactivity was measured by liquid scintillation counting using a Beckman LS5000 TA counter (Beckman Coulter, Irvine, Calif.). Specific binding was defined as the difference between total binding and non-specific binding (in the presence of 2-5 μM cold S1P). Standard errors were computed on the basis of triplicate samples from two simultaneous transfections.

[13] = target: T11, S1P1 mutant V6.40L (Homo sapiens, UniProt P21453, V261L); assay: [32P]S1P radioligand binding, RH7777 cells, V6.40L; conditions: radioligand 50 nM, S1P1 V6.40L
T11 construct: expressed in transfected cells; host or cells: RH7777
Method: as §1, §3

[14] = target: T12, S1P1 mutant F5.43G (Homo sapiens, UniProt P21453, F205G); assay: [35S]GTPγS binding, S1P1 F5.43G; assay type: biochemical; conditions: S1P-induced, S1P1 F5.43G in RH7777 cells
T12 construct: expressed in transfected cells; host or cells: RH7777 (transient, pcDNA3.1)
Method: as §1, §2

[15] = target: T13, S1P1 mutant V6.40T (Homo sapiens, UniProt P21453, V261T); assay: [35S]GTPγS binding, S1P1 V6.40T; assay type: biochemical; conditions: S1P-induced, S1P1 V6.40T in RH7777 cells
T13 construct: expressed in transfected cells; host or cells: RH7777
Method: as §1, §2

T2 sequence (P21453 whole entry L128E): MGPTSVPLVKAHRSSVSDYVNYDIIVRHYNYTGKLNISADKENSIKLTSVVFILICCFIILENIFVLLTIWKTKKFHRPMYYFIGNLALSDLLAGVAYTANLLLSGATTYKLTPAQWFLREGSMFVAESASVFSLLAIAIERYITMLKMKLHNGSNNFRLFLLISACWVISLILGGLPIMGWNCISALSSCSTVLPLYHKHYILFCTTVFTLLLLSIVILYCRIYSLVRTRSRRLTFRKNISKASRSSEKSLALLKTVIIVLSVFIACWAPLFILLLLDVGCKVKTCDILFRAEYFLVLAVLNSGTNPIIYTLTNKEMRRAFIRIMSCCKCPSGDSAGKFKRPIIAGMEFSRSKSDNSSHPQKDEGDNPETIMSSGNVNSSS
T6 sequence (P21453 whole entry T207G): as the sequence (P21453 whole entry L128E) above, with E128L, T207G counted along it
T12 sequence (P21453 whole entry F205G): as the sequence (P21453 whole entry L128E) above, with E128L, F205G counted along it
T7 sequence (P21453 whole entry V258T): as the sequence (P21453 whole entry L128E) above, with E128L, V258T counted along it
T4 sequence (P21453 whole entry L213E): as the sequence (P21453 whole entry L128E) above, with E128L, L213E counted along it
T3 sequence (P21453 whole entry M124K): as the sequence (P21453 whole entry L128E) above, with M124K, E128L counted along it
T1 sequence (P21453 whole entry I203F): as the sequence (P21453 whole entry L128E) above, with E128L, I203F counted along it
T8 sequence (P21453 whole entry T207S): as the sequence (P21453 whole entry L128E) above, with E128L, T207S counted along it
T5 sequence (P21453 whole entry I203A): as the sequence (P21453 whole entry L128E) above, with E128L, I203A counted along it
T10 sequence (P21453 whole entry V209T): as the sequence (P21453 whole entry L128E) above, with E128L, V209T counted along it
T9 sequence (P21453 whole entry L213G): as the sequence (P21453 whole entry L128E) above, with E128L, L213G counted along it
T13 sequence (P21453 whole entry V261T): as the sequence (P21453 whole entry L128E) above, with E128L, V261T counted along it
Sequence of WT S1P1 (P21453 whole entry): as the sequence (P21453 whole entry L128E) above, with E128L counted along it
T11 sequence (P21453 whole entry V261L): as the sequence (P21453 whole entry L128E) above, with E128L, V261L counted along it

CCCCCCCCCCCCC/C=C/[C@@H](O)[C@@H](N)COP(=O)(O)O [S1P, Sphingosine 1-phosphate]
EC50 [1]: 18.9 nM
Emax ([1]; read-out: % WT Emax + s.d.): 27%
Bmax [2]: 1980 fmol
Kd ([2]; competition with cold S1P, read-out: KD + s.d.): 27.8 nM
% WT Emax + s.d. [3]: ∞
EC50 + s.d. [3]: ∞
% WT Emax + s.d. [4]: ∞
EC50 + s.d. [4]: ∞
EC50 [5]: 157 nM
Emax ([5]; read-out: % WT Emax + s.d.): 26%
EC50 [6]: 30.9 nM
Emax ([6]; read-out: % WT Emax + s.d.): 96%
EC50 [7]: 13 nM
Emax ([7]; read-out: % WT Emax + s.d.): 181%
Kd [8]: 36 ± 2 nM
EC50 [9]: 7.9 nM
Emax ([9]; read-out: % WT Emax + s.d.): 28%
EC50 [10]: 2.6 ± 2.1 nM
Emax ([10]; read-out: % WT Emax + s.d.): 46%
EC50 [11]: 89 nM
Emax ([11]; read-out: % WT Emax + s.d.): 100%
[32P]S1P binding relative to WT [12]: > 50 % of the WT
[32P]S1P binding relative to WT [13]: > 50 % of the WT
EC50 [14]: 11.8 nM
Emax ([14]; read-out: % WT Emax + s.d.): 70%
EC50 [15]: 57.3 nM
Emax ([15]; read-out: % WT Emax + s.d.): 61%
